Source: patent publication US4935238A, “Antibiotic A 40926 complex and its pure factors PA, PB, A, B and B0” (Gruppo Lepetit, S.p.A., priority 1984, dated 1990)
Converted amounts (≈) assume the structure as drawn.

What was measured:
Test in all cases: Bactericidal effect on N. gonorrhoeae strains
Assay type in all cases: cell-based
[1] = test system: N. gonorrhoeae L 1007 (CTC 6820); conditions: Neisseria gonorrhoeae
N. gonorrhoeae L 1601 = conditions: Neisseria gonorrhoeae, L1601, clinical isolate, penicillin-resistant
N. gonorrhoeae L 1001 = conditions: Neisseria gonorrhoeae, L1001, clinical isolate
N. gonorrhoeae L 1596 = conditions: Neisseria gonorrhoeae, L1596, clinical isolate, spectinomycin-resistant
N. gonorrhoeae L 1004 = conditions: Neisseria gonorrhoeae, L1004, clinical isolate
N. gonorrhoeae L 1605 = conditions: Neisseria gonorrhoeae, L1605, clinical isolate, penicillin-resistant
[2] = 24 h, 99.9% of initial inoculum killed

Structure (SMILES): CN[C@@H]1[C@H](O)[C@H](NC)[C@H]2O[C@@]3(O)C(=O)C[C@@H](C)O[C@H]3O[C@@H]2[C@H]1O [Spectinomycin]
- MIC ([1]; 48 h): 16 µg/mL (≈ 48.1 µM)
- MBC [1, 2]: 16 µg/mL (≈ 48.1 µM)
- MBC (N. gonorrhoeae L 1601; [2]): 16 µg/mL (≈ 48.1 µM)
- MIC (N. gonorrhoeae L 1601; 48 h): 16 µg/mL (≈ 48.1 µM)
- MBC (N. gonorrhoeae L 1001; [2]): 32 µg/mL (≈ 96.3 µM)
- MIC (N. gonorrhoeae L 1001; 48 h): 16 µg/mL (≈ 48.1 µM)
- MBC (N. gonorrhoeae L 1596; [2]): > 128 µg/mL
- MIC (N. gonorrhoeae L 1596; 48 h): > 128 µg/mL
- MBC (N. gonorrhoeae L 1004; [2]): 32 µg/mL (≈ 96.3 µM)
- MIC (N. gonorrhoeae L 1004; 48 h): 16 µg/mL (≈ 48.1 µM)
- MBC (N. gonorrhoeae L 1605; [2]): 32 µg/mL (≈ 96.3 µM)
- MIC (N. gonorrhoeae L 1605; 48 h): 32 µg/mL (≈ 96.3 µM)
